The values below are quoted from earlier work in patent US20260097000A1, “INTRANASAL DELIVERY OF CANNABINOIDS” (priority 2022, published 2026).

For data set [1] the following is noted: oral delivery.
The conditions of data set [2]: rats, oral 10 mg kg^−1 and pulmonary 20 mg kg^−1.

Consider `C=C(C)[C@@H]1CCC(C)=C[C@H]1c1c(O)cc(CCCCC)cc1O` [CBD, cannabidiol], for which the “7-hydroxy-cannabidiol (7-OH-CBD) metabolite share of orally delivered CBD” value in data set [1] is reported as 40%. Also, the “CBD levels in the brain” value in data set [2] was 200 to 300 ng/g.
